Assay results published in PMC9090415, “Discovery of small molecule inhibitors of Plasmodium falciparum apicoplast DNA polymerase” (Journal of Enzyme Inhibition and Medicinal Chemistry, 2022).

Target: P. falciparum apicoplast DNA polymerase (Pf-apPOL) (Plasmodium falciparum, UniProt Q8ILY1)
Assay: Fluorescence-based high-throughput DNA polymerase assay (molecular beacon), primary screen and dose-response
Assay type: biochemical
Procedure: The HT assay employs a molecular beacon, a stem-loop DNA template with a Cy3 dye and the Black Hole Quencher on the 3′ and 5′ ends of the DNA, respectively. Pf-apPOL concentration is based on a calculated absorptivity of ε280 = 56750 M^−1 cm^−1. Reactions were carried out at 25 °C, using Corning 3575 […] (well-volume, 20 µL). Assays testing for compound inhibition composed of reaction buffer (pH 7.9 in 50 mM potassium acetate, 20 mM Tris-acetate and 10 mM magnesium acetate), Pf-apPOL (20 nM), DNA substrate (20 nM), dNTPs (6 µM), and compound (10 µM in DMSO). The DNA and nucleotide substrates (dNTPs) were at concentrations of 20 nM and 6 µM, respectively, in the assay. Pf-apPOL was incubated in the reaction buffer with dNTPs and the compound of interest (10 µM, in the assay) at 25 °C for 10 min. The DNA substrate was then added and the reaction was allowed to proceed for 90 min at 25 °C.
Each assay plate contained 16 negative controls (no Pf-apPOL, DMSO present) and 16 positive controls (Pf-apPOL present, no DMSO). The fluorescence of each well was determined using a BioTek Synergy Neo fluorescence plate reader using excitation and emission wavelengths of 555 and 570 nm, respectively.
In the above, Min is the average of fluorescence emission of the negative controls (substrate only), Max the average fluorescence emission from the positive controls (enzyme + substrate), and Test the emission from the assays in the presence of compounds (enzyme + compound + substrates). […] […] The IC50 of each compound was determined using Equation (2): (2) IC50= Vmax/(1+ (I/IC50)^n)
In the above, n measures cooperativity, with n > 1 indicating synergistic binding of more than a single molecule of the compound.
To identify apPOL inhibitors we utilised our previously developed high-throughput DNA polymerase assay. The HT assay is based on a molecular beacon DNA template that forms a stem-loop with a Cy3 dye and the Black Hole Quencher on the 3′ and 5′ ends of the DNA, respectively. DNA polymerase activity extends an annealed primer through the stem region, displacing the fluorophore from the quencher, thereby increasing its fluorescence (Figure 1(A)). The assay accurately recapitulates the kinetic behaviour of apPOL, as measured through more conventional low-throughput gel-based assays. The Z′ factor for the assay described here was 0.9 across all plates (data not shown).
Figure 1. High-throughput screening. (A) The fluorescent-based DNA polymerase assay used to screen the compound libraries. The DNA template strand is a hairpin loop with a primer annealed to the loop. The 3’ end of the primer is 11 bases away from the 6 bp duplex. Strand displacement activity of the DNA polymerase separates the Cy3 dye from the Black hole quencher leading to an increase in fluorescent signal. (B) The high-throughput assay workflow. The DNA polymerase is incubated with […] compound for 10 min prior to addition of the hairpin substrate. The reaction is quenched at 3 different time points and the fluorescent signal is measured and % inhibition is determined using the provided equation.

[1] = primary screen value of the 186 hits; unit not given; 90 min, 10 µM
[2] = supplemental file 2, sheet IC50 nontoxic compounds; Pf-apPOL

P. falciparum apicoplast DNA polymerase (Pf-apPOL), sequence (Q8ILY1 entry or part of it): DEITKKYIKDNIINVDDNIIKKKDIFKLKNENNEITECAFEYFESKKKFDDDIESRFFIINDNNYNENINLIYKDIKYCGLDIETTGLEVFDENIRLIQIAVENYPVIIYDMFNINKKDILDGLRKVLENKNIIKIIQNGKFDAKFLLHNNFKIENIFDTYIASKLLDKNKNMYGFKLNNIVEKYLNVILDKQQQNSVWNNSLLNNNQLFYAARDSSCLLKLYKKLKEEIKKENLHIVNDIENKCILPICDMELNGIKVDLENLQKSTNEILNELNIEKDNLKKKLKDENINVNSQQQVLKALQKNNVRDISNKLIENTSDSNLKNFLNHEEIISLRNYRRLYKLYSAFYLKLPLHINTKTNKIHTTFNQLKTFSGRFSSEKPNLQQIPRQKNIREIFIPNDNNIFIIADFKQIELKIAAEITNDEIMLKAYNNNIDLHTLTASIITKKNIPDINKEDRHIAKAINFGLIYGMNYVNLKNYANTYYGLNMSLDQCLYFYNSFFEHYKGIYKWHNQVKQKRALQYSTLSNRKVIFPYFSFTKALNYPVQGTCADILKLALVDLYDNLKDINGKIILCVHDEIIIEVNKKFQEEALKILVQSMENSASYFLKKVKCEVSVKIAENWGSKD

Cc1ccc(C2=N/C(=C\c3ccc(I)o3)C(=O)O2)cc1[N+](=O)[O-] [KU0073890]
% inhibition Apo pol 10' (DRC-1; concentration 2.5; 10'): 15.7556% | % inhibition Apol 90' (DRC-1; concentration 2.5; 90'): 9.731% | % inhibition apPOL 180' (DRC-1; concentration 2.5; 180'): 6.694% | % inhibition Apo pol 10' (DRC-1; concentration 5; 10'): 16.0721% | % inhibition Apol 90' (DRC-1; concentration 5; 90'): 7.063% | % inhibition apPOL 180' (DRC-1; concentration 5; 180'): 1.084% | % inhibition Apo pol 10' (DRC-1; concentration 10; 10'): 45.023% | % inhibition Apol 90' (DRC-1; concentration 10; 90'): 27.25% | % inhibition apPOL 180' (DRC-1; concentration 10; 180'): 14.7198% | % inhibition Apo pol 10' (DRC-1; concentration 20; 10'): 76.1272% | % inhibition Apol 90' (DRC-1; concentration 20; 90'): 60.0756% | % inhibition apPOL 180' (DRC-1; concentration 20; 180'): 43.2832% | % inhibition Apo pol 10' (DRC-1; concentration 40; 10'): 86.9883% | % inhibition Apol 90' (DRC-1; concentration 40; 90'): 86.9491% | % inhibition apPOL 180' (DRC-1; concentration 40; 180'): 82.7565% | % inhibition Apo pol 10' (DRC-1; concentration 80 (unit not given); 10'): 80.4424% | % inhibition Apol 90' (DRC-1; concentration 80; 90'): 89.2693% | % inhibition apPOL 180' (DRC-1; concentration 80; 180'): 91.2118% | % inhibition Apo pol 5' (DRC-2; 5'; concentration 2.5): 19% | % inhibition Apol 40' (DRC-2; 40'; concentration 2.5): 19% | % inhibition ApPOL 90' (DRC-2; 90'; concentration 2.5): 17% | % inhibition ApPOL 90' (DRC-2; 90'; concentration 40): 75% | % inhibition ApPOL 90' (DRC-2; 90'; concentration 80): 75% | % inhibition apPOL 180' (DRC-2; 180'; concentration 5): 17% | % inhibition Apo pol 5' (DRC-2; concentration 2.5; 5'): 19% | % inhibition Apol 40' (DRC-2; concentration 2.5; 40'): 19% | % inhibition ApPOL 90' (DRC-2; concentration 2.5; 90'): 17% | % inhibition apPOL 180' (DRC-2; concentration 2.5; 180'): 11% | % inhibition Apo pol 5' (DRC-2; concentration 5; 5'): 35% | % inhibition Apol 40' (DRC-2; concentration 5; 40'): 32% | % inhibition ApPOL 90' (DRC-2; concentration 5; 90'): 29% | % inhibition apPOL 180' (DRC-2; concentration 5; 180'): 17% | % inhibition Apo pol 5' (DRC-2; concentration 10; 5'): 44% | % inhibition Apol 40' (DRC-2; concentration 10; 40'): 42% | % inhibition ApPOL 90' (DRC-2; concentration 10; 90'): 38% | % inhibition apPOL 180' (DRC-2; concentration 10; 180'): 25% | % inhibition Apo pol 5' (DRC-2; concentration 20; 5'): 55% | % inhibition Apol 40' (DRC-2; concentration 20; 40'): 62% | % inhibition ApPOL 90' (DRC-2; concentration 20; 90'): 60% | % inhibition apPOL 180' (DRC-2; concentration 20; 180'): 51% | % inhibition Apo pol 5' (DRC-2; concentration 40; 5'): 58% | % inhibition Apol 40' (DRC-2; concentration 40; 40'): 73% | % inhibition ApPOL 90' (DRC-2; concentration 40; 90'): 75% | % inhibition apPOL 180' (DRC-2; concentration 40; 180'): 77% | % inhibition Apo pol 5' (DRC-2; concentration 80; 5'): 49% | % inhibition Apol 40' (DRC-2; concentration 80; 40'): 70% | % inhibition ApPOL 90' (DRC-2; concentration 80; 90'): 75% | % inhibition apPOL 180' (DRC-2; concentration 80; 180'): 80% | DNA Pol [1]: 42 | DNA Pol (primary screen value; head prints only 'DNA Pol'; 90 min, 10 µM): 42

O=C(O)c1cccc(N2N=C(C(F)(F)F)/C(=C/c3ccc(-c4ccccc4[N+](=O)[O-])o3)C2=O)c1 [Molecule 100]
IC50 [2]: 9.62 µM

COc1ccc(NC(=O)Cn2ccc3c(=O)[nH]ccc32)cc1Cl [Molecule 10, COc1ccc(cc1Cl)NC(=O)Cn1ccc2c1cc[nH]c2=O]
% inhibition Apo pol 10' (DRC-1; 10'; concentration 2.5): 12.1098% | % inhibition Apo pol 10' (DRC-1; 10'; concentration 5): 41.0198% | % inhibition Apo pol 10' (DRC-1; 10'; concentration 10): 64.5653% | % inhibition Apo pol 10' (DRC-1; 10'; concentration 20): 78.092% | % inhibition Apo pol 10' (DRC-1; 10'; concentration 40): 83.862% | % inhibition Apo pol 10' (DRC-1; 10'; concentration 80): 74.6013% | % inhibition Apol 90' (DRC-1; 90'; concentration 2.5): 1.658% | % inhibition Apol 90' (DRC-1; 90'; concentration 5): 26.4531% | % inhibition Apol 90' (DRC-1; 90'; concentration 10): 48.8726% | % inhibition Apol 90' (DRC-1; 90'; concentration 20): 69.5261% | % inhibition Apol 90' (DRC-1; 90'; concentration 40): 86.3942% | % inhibition Apol 90' (DRC-1; 90'; concentration 80): 83.0123% | % inhibition apPOL 180' (DRC-1; 180'; concentration 2.5): -4.328% | % inhibition apPOL 180' (DRC-1; 180'; concentration 5): 12.6648% | % inhibition apPOL 180' (DRC-1; 180'; concentration 10): 30.7094% | % inhibition apPOL 180' (DRC-1; 180'; concentration 20): 56.2759% | % inhibition apPOL 180' (DRC-1; 180'; concentration 40): 85.5137% | % inhibition apPOL 180' (DRC-1; 180'; concentration 80): 84.9384% | % inhibition Apo pol 5' (DRC-2; 5'; concentration 2.5): 22% | % inhibition Apo pol 5' (DRC-2; 5'; concentration 5): 37% | % inhibition Apo pol 5' (DRC-2; 5'; concentration 10): 48% | % inhibition Apo pol 5' (DRC-2; 5'; concentration 20): 44% | % inhibition Apo pol 5' (DRC-2; 5'; concentration 40): 37% | % inhibition Apo pol 5' (DRC-2; 5'; concentration 80): 19% | % inhibition Apol 40' (DRC-2; 40'; concentration 2.5): 23% | % inhibition Apol 40' (DRC-2; 40'; concentration 5): 47% | % inhibition Apol 40' (DRC-2; 40'; concentration 10): 64% | % inhibition Apol 40' (DRC-2; 40'; concentration 20): 65% | % inhibition Apol 40' (DRC-2; 40'; concentration 40): 62% | % inhibition Apol 40' (DRC-2; 40'; concentration 80): 51% | % inhibition ApPOL 90' (DRC-2; 90'; concentration 2.5): 20% | % inhibition ApPOL 90' (DRC-2; 90'; concentration 5): 45% | % inhibition ApPOL 90' (DRC-2; 90'; concentration 10): 66% | % inhibition ApPOL 90' (DRC-2; 90'; concentration 20): 69% | % inhibition ApPOL 90' (DRC-2; 90'; concentration 40): 68% | % inhibition ApPOL 90' (DRC-2; 90'; concentration 80): 59% | % inhibition apPOL 180' (DRC-2; 180'; concentration 2.5): 8% | % inhibition apPOL 180' (DRC-2; 180'; concentration 5): 34% | % inhibition apPOL 180' (DRC-2; 180'; concentration 10): 62% | % inhibition apPOL 180' (DRC-2; 180'; concentration 20): 70% | % inhibition apPOL 180' (DRC-2; 180'; concentration 40): 73% | % inhibition apPOL 180' (DRC-2; 180'; concentration 80): 67% | % inhibition Apo pol 5' (conc. 5; 5'; DRC-2): 37% | % inhibition apPOL 180' (conc. 10; 180'; DRC-2): 62% | % inhibition Apo pol 5' (conc. 40; 5'; DRC-2): 37% | % inhibition Apol 40' (conc. 40; 40'; DRC-2): 62% | DNA Pol (primary screen value by plate and well; 90 min, 10 µM): 78 | DNA Pol [1]: 78

O=C1NN(c2ccc(Cl)c(Cl)c2)C(=O)/C1=C/c1ccc(-c2ccc3c(c2)C(=O)OC3)o1 [Molecule 90]
IC50 [2]: 3.43 µM
